This note sets out measurements from publication PMC3039689, “Identification of Small Molecule Lead Compounds for Visceral Leishmaniasis Using a Novel Ex Vivo Splenic Explant Model System” (PLoS Neglected Tropical Diseases, 2011).

Like-named read-outs stand apart in the source and are kept apart here. A value given as a limit tells only on which side of the number the result lay.

Data set [1] has as its system LUC-transfected L. donovani. The experiment in a line: Anti-leishmanial efficacy (EC50) in in vitro infected peritoneal macrophages. In kind it is cell-based, Leishmania donovani. As to conditions: 48 h, read-out: Peritoneal Macrophages EC50 (mean±SE). As for the experimental part: Macrophages from uninfected hamsters were obtained by peritoneal lavage with DMEM (Gibco) and Heparin (2 units/ml; Elkins-Sinn, Cherry Hill NJ). The cells were washed twice by centrifugation and re-suspended in culture medium composed of DMEM, 5% FBS, 1 mM sodium pyruvate (Gibco), 1X MEM amino acids solution (Sigma), 0.02% v/v/EDTA and 10 mM HEPES buffer (Cellgro). The peritoneal macrophages were adjusted to 5×10^5 cells/ml and allowed to adhere overnight at 37°C and 5% CO2 in flat bottom 96-well plates. Adherent macrophages were infected at 1∶5 ratio (cells:parasites) with stationary phase LUC-transfected L. donovani promastigotes and cultured at 37°C, 5% CO2, for 2 h. The extracellular parasites were then removed by washing with warm Dulbeco's PBS (Gibco). Infected macrophages were exposed to 2-fold serial dilutions of test compounds as described above for the ex vivo culture system. The infected macrophages were incubated for 48 hr in 5% CO2 atmosphere at 37°C. The number of surviving parasites was determined by luminometry and the effective concentration (EC50) calculated by linear regression (GraphPad Prism 5.0) as described above for the ex vivo system. The mean and standard error of the EC50 from 3 different experiments were considered as the final EC50. […] Tilorone was obtained from Hangzhou Trylead Chemical Tech (China). All compounds were dissolved in sterile dimethyl sulfoxide (analytical grade, cell culture tested; Sigma) and stored frozen at −20°C until used.

Data set [2] concerns luciferase-transfected Leishmania donovani. Briefly: Anti-leishmanial efficacy (EC50) in the ex vivo splenic explant model. In kind it is cell-based. As for the experimental part:
To establish the plate assay for drug screening, the spleens from 2 infected hamsters were aseptically removed and placed in a Petri dish containing 5 mL of Collagenase D (Roche) at 2 mg/mL of buffer (10 mM Hepes pH 7.4, 150 mM NaCl, 5 mM KCl, 1 mM MgCl2, 1.8 mM CaCl2). The spleen was infiltrated by injection with approximately 2 mL of Collagenase solution, the tissue was cut into small pieces using sharp scissors, and incubated for 20 minutes at 37°C. The cell suspension and remaining tissue fragments were gently passed through a 100 µm cell strainer (B–D) to obtain a single cell suspension, which was washed twice by centrifugation (500 g for 7 min at 4°C) and re-suspended in culture medium composed of DMEM (Gibco), 5% FBS, 1 mM Sodium pyruvate (Gibco), 1X MEM amino acids solution (Sigma), 0.02% v/v/EDTA, 10 mM HEPES buffer (Cellgro) and 100 IU/mL Penicillin/100 […] Streptomycin solution (Cellgro).
The anti-leishmanial efficacy of the compounds was determined using the splenic explant model in a 96-well plate format. […] Because variation in the parasite burden between different explant cultures was expected, the concentration of cells used in each experiment was adjusted to give approximately 100 counts by luminometry (equivalent to ∼240,000 parasites). The number of surviving parasites was determined by luminometry as described above.

For data set [3] the test system is unchanged. Briefly: Primary screening of compound libraries in the ex vivo splenic explant model (Z score). In kind it is cell-based. As to conditions: 10 µM; for Outcome of library screening (significant Z score / hit): compounds as included in the libraries. From the text:
The following chemical libraries in 96-well plate format were screened: NINDS Custom Collection II (MicroSource Discovery Systems, Inc.), which consists of 1,040 classical therapeutic agents, established experimental inhibitors, receptor agonist drugs and other bioactive compounds [24], [25], [26]; the Pure Natural Products library (MicroSource Discovery Systems, Inc.) a collection of 800 pure natural products and derivatives; and The Diversity Set and Natural Products set (Developmental Therapeutics Program, NCI/NIH) a set of 2,195 compounds selected from the almost 140,000 compounds based on diversity of structure, [28], [29]. Libraries containing the compounds at 10 mM concentration in DMSO were diluted into master plates at 200 µM concentration in DMEM. The 200 µM master plates were further diluted by transferring an aliquot of 5 µl into a 96-well sterile white-bottom plate (Costar) containing 45 µl of culture medium at 4°C. Splenocytes (100,000 in 50 µl of culture medium) that had been obtained from infected hamsters as described above were added to the assay plate for a final drug concentration of 10 µM. The positive control (splenocytes treated with 0.2 µM Amphotericin B) and negative controls (0.1% DMSO vehicle) were distributed in the two outer columns (8 wells each) of each plate in alternating fashion to minimize any edge effect. After 48 hours of culture at 37°C in a humidified atmosphere and 5% CO2, the plates were centrifuged at 500 g for 7 min, the supernatant discarded using a multi- channel vacuum aspirator (Costar), and 20 µl of 1X cell culture lysis reagent (Promega) was added to the cells. To complete the lysis procedure the plates were frozen at −70°C and then thawed, and the luciferase activity determined in a plate luminometer following addition of 100 µl of the luciferin substrate at room temperature (Promega). The Z score was calculated for each compound as the mean counts of the compound tested minus the mean counts of all compounds in the plate divided by the SD all compounds in the plate. The mean Z score for each drug was calculated based on duplicate screenings performed in two different experiments. A Z score of ≤–1.96, which corresponds to a p value of ≤0.05 (95% confidence limit), was used as the threshold to identify the hits. […] The quality of each assay was determined by calculating the Z prime (Z') factor [31], which measures the discrimination between positive and negative controls in the screen. The Z' factor was calculated as 1 – [(3SD positive controls +3SD negative controls)/absolute value of (mean of the positive controls – mean of the negative controls)].

Data set [4] can be described thus: Cell toxicity (CC50) in the HepG2 cell line, CellTiter-Glo. It counts as cell-based, human. As to conditions: human. As for the experimental part:
(§1) After 24 hours of culture at 37°C the number of viable cells was determined by quantification of the ATP present in the cell using the CellTiter-Glo luminescent Cell Viability Assay (Promega).

In data set [5] the test system is HepG2 cells. Described as above. It counts as cell-based, human. As for the experimental part: as §1
[6] abbreviates: Leishmania donovani, Peritoneal macrophage, hamster peritoneal macrophages infected in vitro, luminometry, purchased compounds.
Where [7] appears, read: Leishmania donovani, 48 h, 48 h of culture, luminometry, purchased compounds dissolved in DMSO, read-out: Ex vivo model EC50 (mean±SE).
Setting [8] is: HepG2 cell line, 24 h, ATP luminescence, compound from screened library, read-out: HepG2 CC50 Mean.
[9] abbreviates: Leishmania donovani, ex vivo splenic explant, 48 h, luminometry, at least two experiments, compound from screened library, read-out: Ex vivo model EC50 Mean.
[10] abbreviates: ex vivo splenic explant, 48 h, luminometry, at least two experiments, compound from screened library, read-out: Ex vivo model EC50 Mean.

Consider `CC[C@@]1([C@@H]2O[C@@H]([C@H]3O[C@@](O)(CO)[C@H](C)C[C@@H]3C)C[C@@H]2C)CC[C@H]([C@]2(C)CC[C@]3(C[C@H](O)[C@@H](C)[C@@H]([C@@H](C)[C@@H](OC)[C@H](C)C(=O)O)O3)O2)O1` [Monensin A], for which the 50% effective concentration (EC50) (usually the concentration giving half of the maximal effect) in data set [1] (setting [6]) was 0.23 ± 0.15 µM; in data set [2] (setting [7]), 0.85 ± 0.68 µM.

With Meglumine antimoniate, the EC50 in data set [1] (hamster peritoneal macrophages infected in vitro, luminometry, purchased compounds) turned out to be 146 ± 42 µM; in data set [2] (48 h of culture, luminometry, purchased compounds dissolved in DMSO, read-out: Ex vivo model EC50 (mean±SE)), 270 ± 57.5 µM.

In data set [3] (48 h, duplicate screen, hit threshold -1.96), `N=C(N)c1ccc(OCCCCCOc2ccc(C(=N)N)cc2)cc1` [Pentamidine] registered a Z score of −1.87. In data set [3], the “Outcome of library screening (significant Z score / hit)” value (shortened to “Outcome … (significant Z score / hit)”) was “did not show a significant Z score”. Moreover, the EC50 in data set [1] (setting [6]) was 0.89 ± 0.37 µM; in data set [2] (setting [7]), 3.02 ± 0.34 µM; in data set [2] (Leishmania donovani, Splenocyte, ex vivo splenocytes system, read-out: EC50), 3 µM.

On to `CCCCCC[C@H]1C(=O)O[C@H](C)[C@H](NC(=O)c2cccc(NC=O)c2O)C(=O)O[C@@H](C)[C@@H]1OC(=O)CC(C)C` [ANTIMYCIN A], for which the 50% effective concentration (EC50) in data set [1] (Leishmania donovani, Peritoneal macrophage, in Mesocricetus auratus) is 1.67 ± 1.05 µM; in data set [2] (Leishmania donovani, 50% reduction in parasite counts in the ex vivo model, read-out: EC50 Mean (Table S2)) it was 11.6 µM; in data set [2] (Leishmania donovani, 48 h of culture, luminometry, purchased compounds dissolved in DMSO, read-out: Ex vivo model EC50 (mean±SE)), 1.27 ± 1.07 µM; in data set [2] (setting [9]), 11.6 µM. For the same compound, the CC50 – broadly, the concentration giving 50% cytotoxicity – at 24 h in data set [4] (setting [8]) came out at 58.4 µM.

As for `CCN(CC)C(=S)SSC(=S)N(CC)CC` [Disulfiram], the results for the EC50 in data set [1] (setting [6]), in data set [2] (setting [7]) and in data set [2] (setting [9]) were 0.16 ± 0.03 µM, 0.31 ± 0.03 µM and 8.1 µM, respectively. The CC50 at 24 h in data set [4] was 53 µM.

For `CCCCCCCCCCCCCCCCOP(=O)([O-])OCC[N+](C)(C)C` [Miltefosine], the “Outcome … (significant Z score / hit)” value in data set [3] was “did not show a significant Z score”. For the same compound, the EC50 in data set [1] (setting [6]) was 2.28 ± 0.21 µM; in data set [2] (setting [7]) it was 1.02 ± 0.08 µM; in data set [2] (Leishmania donovani, ex vivo model, freshly solubilized compound from commercial source, read-out: EC50), 1 µM. Moreover, the “Anti-leishmanial activity, repeated testing” value in data set [2] (compound from the NCI chemical library) is “inactive”.

For the compound `OC(Cn1cncn1)(Cn1cncn1)c1ccc(F)cc1F` [Fluconazole], the “Outcome … (significant Z score / hit)” value in data set [3] is given as “did not show a significant Z score”. For the same compound, the EC50 in data set [1] (setting [6]) and in data set [2] (setting [7]) was more than 250 µM in each case. Also, the “Activity in the ex vivo system (screen or EC50 determination)” value in data set [2] (transgenic L. donovani, ex vivo system) is on record as “no activity”.

`c1ccc(-c2ccc(-c3ccc(C4=NCCN4)cc3)o2)cc1` [2-[4-(5-phenylfuran-2-yl)phenyl]-4,5-dihydro-1H-imidazole chloride] yielded a CC50 in data set [5] of 42.9 µM. Moreover, the EC50 in data set [2] (setting [10]) is 7.5 µM.

In the case of Benzalkonium Chloride, the 50% cytotoxic concentration (CC50) in data set [5] (setting [8]) was 38.6 µM. In addition, the EC50 in data set [2] (setting [10]) turned out to be 6.4 µM.

Regarding `CC1=CC(C2/C(=N/O)C=C(C)CC2(C)C)C(O)C(C)(C)C1` (centres unmarked) [Cristox Oxime], in data set [5] (setting [8]), the CC50 worked out at 140 µM. The EC50 in data set [2] (setting [10]) was 10.9 µM.

Turning to `CCCCCCc1ccc(O)cc1O.Nc1c2ccccc2nc2ccccc12` [Acrisorcin], the CC50 in data set [5] (setting [8]) worked out at 50.9 µM. The concentration for a half-maximal effect (EC50) in data set [2] (setting [10]) was 8 µM.

On to `CCCC(c1cc(C(C)(C)C)c(O)cc1C)c1cc(C(C)(C)C)c(O)cc1C` [Sumilit BBM], for which the CC50 in data set [5] (setting [8]) stood at 71.7 µM. In data set [2] (setting [10]), the concentration giving a half-maximal response (EC50) came out at 9.4 µM.

As for `CNCCC=C1c2ccccc2CCc2ccccc21` [Nortriptyline], the EC50 in data set [1] (setting [6]) came out at 2.65 ± 0.35 µM; in data set [2] (setting [7]), 6.03 ± 0.28 µM.

With `C=C1C(=O)O[C@@H]2[C@H]1CC[C@H](C)[C@]1(O)C=CC(=O)[C@@]21C` [Parthenicin], in data set [5] (setting [8]), the 50% cytotoxic concentration (CC50) was 64.5 µM. In addition, the EC50 in data set [2] (setting [10]) came to 8.7 µM.
